From patent publication US10487056B2, “Small molecule androgen receptor inhibitors and methods of use thereof” (GEORGETOWN UNIVERSITY, priority 2015, dated 2019)

Experiments:
Assay type in all cases: cell-based
22Rv1 cells [1] = assay: Cleaved caspase-3 and cleaved PARP by Western blot and immunofluorescence, 22Rv1 cells; conditions: SH-I-125 1 μM, three days
Protocol: 22Rv1 cells were treated with SH-I-125 (1 μM) for one, two, or three days, and caspase 3/7 activity was measured using Caspase-Glo 3/7 substrates. […] Data represent mean of three independent experiments with quadruplicate samples; bars, SEM. ***, p value <0.001 determined by ANOVA.
The presence of cleaved caspase-3 and cleaved PARP were determined. The cells were counterstained with 4′,6-diamidino-2-phenylindole (DAPI).
Western blotting was performed as described in Amin et al., Mol. Cancer Ther., 13:341-52 (2014). The following antibodies were used: Androgen receptor (N-20; Santa Cruz Biotechnology; Dallas, Tex.), PSA (A0562; Dako; Carpinteria, Calif.), β-actin (SC-47778; Santa Cruz Biotechnology), AR-V7 (AG10008; Precision Antibody; Columbia, Md.), cleaved PARP (9541; Cell Signaling Technologies, Danvers, Mass.), and cleaved caspase-3 (9664; Cell Signaling Technologies, Danvers, Mass.).
It was determined whether caspase activity and apoptosis were induced in 22Rv1 cells upon SH-I-125 treatment. […] Staurosporine was used as a positive control for apoptosis induction (FIG. 10B).

AR and AR-V7 [2] = assay: Immunofluorescence staining of AR and AR-V7 in 22Rv1 cells; conditions: SH-I-125 1 μM, 24 hours
Protocol: […]. Androgen receptor (AR) and PSA expression levels were assessed.
Immunofluorescence staining was performed as described in Amin et al., Mol. Cancer Ther., 13:341-52 (2014).
22Rv1 cells represent a commonly observed castration-resistant phenotype, including androgen-independent growth and the expression of AR splice variants, such as AR-V7. […]. […] […].

PrEC = assay: Live and dead cell staining, PrEC cells; conditions: SH-I-125 5 μM, 3 days
Protocol: Live and dead cells were determined using a Cell Viability/Cytotoxicity Assay kit (Biotium Inc.; Hayward, Calif.).
(§1) To determine the effects of SH-I-125 on prostate cancer cell growth, 22Rv1 cells were treated with SH-I-125 and cell viability was measured after a period of 3 days. […]. In comparison, non-tumorigenic primary prostate epithelial cells (PrEC) retained 80% viability in the presence of a similar range of doses of SH-I-125, showing that tumorigenic cells are more susceptible to the growth inhibitory properties of SH-I-125 compared to non-tumorigenic cells (FIG. 8B). […] Staurosporine was used as a positive control for cell death induction in live and dead assays (FIG. 9C).

AR and AR-V7 [3] = assay: Quantitative RT-PCR of AR and AR-V7 mRNA in 22Rv1 cells; conditions: SH-I-125 1 μM, 1-3 days, normalized to GAPDH
Protocol: FIG. 12D is a graph showing the mRNA expression of AR and AR-V7 after treating 22Rv1 cells with SH-I-125 (1 μM) for 24 and 72 hrs. The AR and AR-V7 expression levels were assessed by qRTPCR and normalized to GAPDH expression levels.
Quantitative RT-PCR was performed using the protocol and the primers as described in Amin et al., Mol. Cancer Ther., 13:341-52 (2014).
To establish a mechanism by which SH-I-125 caused a decline in AR and AR-V7 levels, the relative expression of AR and AR-V7 in 22Rv1 cells that had been treated with SH-I-125 for a period of 1-3 days was measured. […] To determine whether proteasomal mechanisms are responsible for the decline in AR and AR-V7 levels, 22Rv1 cells were treated with 5 μM SH-I-125 for a period of 48 hours in the presence of proteasome inhibitor, MG132.

AR = target: T1, AR (Homo sapiens, UniProt P10275); assay: VCaP-ARE-luc androgen-response element luciferase reporter assay; conditions: DHT 1 nM, 24 hours
T1 construct: Androgen-dependent VCaP cells were made to stably express an androgen-response element luciferase reporter (VCaP-ARE-luc); host or cells: VCaP / VCaP-ARE-luc
T1 sequence (P10275 1-920): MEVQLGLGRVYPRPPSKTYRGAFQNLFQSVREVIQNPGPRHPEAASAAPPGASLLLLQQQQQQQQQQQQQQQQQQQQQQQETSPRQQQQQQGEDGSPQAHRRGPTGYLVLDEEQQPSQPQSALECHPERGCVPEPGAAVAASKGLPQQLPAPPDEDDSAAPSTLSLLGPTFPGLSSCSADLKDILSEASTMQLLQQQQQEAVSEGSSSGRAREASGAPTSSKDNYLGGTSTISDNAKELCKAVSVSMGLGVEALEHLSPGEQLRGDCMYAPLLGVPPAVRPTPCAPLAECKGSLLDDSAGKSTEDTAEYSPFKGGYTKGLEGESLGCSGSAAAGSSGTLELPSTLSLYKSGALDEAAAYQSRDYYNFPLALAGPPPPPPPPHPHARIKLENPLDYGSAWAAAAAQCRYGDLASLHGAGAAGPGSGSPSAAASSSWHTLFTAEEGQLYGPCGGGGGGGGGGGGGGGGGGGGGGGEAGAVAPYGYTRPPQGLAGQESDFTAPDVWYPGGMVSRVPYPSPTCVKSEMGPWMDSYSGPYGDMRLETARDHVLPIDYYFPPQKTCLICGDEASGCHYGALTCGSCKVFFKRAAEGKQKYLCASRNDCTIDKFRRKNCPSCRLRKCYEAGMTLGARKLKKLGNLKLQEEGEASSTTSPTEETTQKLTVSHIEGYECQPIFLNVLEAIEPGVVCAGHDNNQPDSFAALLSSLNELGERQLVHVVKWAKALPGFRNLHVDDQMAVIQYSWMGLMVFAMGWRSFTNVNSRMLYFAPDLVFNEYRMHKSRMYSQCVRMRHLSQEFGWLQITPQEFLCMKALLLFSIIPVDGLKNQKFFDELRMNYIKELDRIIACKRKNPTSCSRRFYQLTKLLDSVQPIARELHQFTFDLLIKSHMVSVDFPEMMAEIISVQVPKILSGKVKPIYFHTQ
Protocol: VCaP and CWR22Rv1 (referred to as 22Rv1) cells were transduced with ARE-luciferase Cignal Lenti Pathway Reporter (Qiagen; Valencia, Calif.) and cultured as described above in the presence of 1 μg/mL puromycin. Following antibiotic selection, cells stably expressing ARE-luciferase were isolated, cloned and cultured to generate a stable ARE-reporter cell lines.
Androgen-dependent VCaP cells were made to stably express an androgen-response element luciferase reporter (VCaP-ARE-luc).

22Rv1 cells [4] = assay: MTT cell viability assay, 22Rv1 cells; conditions: 3 days
Protocol: Cells were treated in the manner indicated below for the specified period of time. MTT assay was performed as described in Amin et al., Mol. Cancer Ther., 13:341-52 (2014).
as §1

With `COc1ccc2c(c1)[nH]c1c(C)c(OS(=O)(=O)c3cccc4ccccc34)ccc12` [SH-I-125, 7-methoxy-1-methyl-9H-carbazol-2-yl naphthalene-1-sulfonate] the “cleaved caspase-3 and cleavage of PARP” value (22Rv1 cells [1]) was “presence of cleaved caspase-3 and accompanied by the cleavage of PARP”, the “nuclear localization of AR and AR-V7” value (AR and AR-V7 [2]) was “decreased the nuclear localization of AR and AR-V7” and the “live and dead cell staining” value (PrEC) was “mostly unaffected”. For the same compound, the “AR and AR-V7 message (mRNA) levels” value (AR and AR-V7 [3]) was “did not affect the message levels”, the “potency relative to mahanine on AR signaling (ARE-luc)” value (AR) was “more potent than mahanine” and the “inhibition of AR transactivation (luciferase activity)” value (AR; range of doses) was “comparable decline in luciferase activity”. For the same compound, the “potency relative to natural-derived and synthetically-derived mahanine in preventing growth” value (22Rv1 cells [4]; MTT) was “ten-fold” and the viability at 1 µM (22Rv1 cells [4]; Homo sapiens, 72 h, dose of 1 μM, read-out: cell viability, of control) was 50%.
